Test results from patent US6541477B2, “Inhibitors of p38-a kinase” (Scios, Inc., priority 1999, dated 2003).

Legend:
p38-α kinase [1] = target: T1, p38-α kinase (Homo sapiens, UniProt Q16539); assay: biochemical; conditions: for inhibition at 15 µM: read-out: % Inhibition of p38α kinase at 15 μM; for inhibition at 0.2 µM: read-out: percent inhibition of p38α at 200 nM
[2] = Molar refraction (MR) of the ortho substituent as a measure of its size; format: physicochemical; conditions: as described by Hansch, J Med Chem 1973
Method: The molar refraction values for the ortho derivatives containing chloro, bromo and methoxy substituents were determined as a measure of the size of the substituent as described by Hansch, C. et al., J Med Chem (1973) 16:1207-1216. A linear correlation between the MR values and percent inhibition of p38α at 200 nM concentrations of the compounds was obtained. […] Thus, it appears that the ability to inhibit p38α kinase is dependent on the size of the ortho substituent. While not intending to be bound by any theory, applicants believe that the bulkier substituents rotate the aroyl moiety out of the plane of the piperidine or piperazine ring.

p38-α kinase [3] = target: T1, p38-α kinase; conditions: 15 μM compound

T1 sequence (Q16539 whole entry): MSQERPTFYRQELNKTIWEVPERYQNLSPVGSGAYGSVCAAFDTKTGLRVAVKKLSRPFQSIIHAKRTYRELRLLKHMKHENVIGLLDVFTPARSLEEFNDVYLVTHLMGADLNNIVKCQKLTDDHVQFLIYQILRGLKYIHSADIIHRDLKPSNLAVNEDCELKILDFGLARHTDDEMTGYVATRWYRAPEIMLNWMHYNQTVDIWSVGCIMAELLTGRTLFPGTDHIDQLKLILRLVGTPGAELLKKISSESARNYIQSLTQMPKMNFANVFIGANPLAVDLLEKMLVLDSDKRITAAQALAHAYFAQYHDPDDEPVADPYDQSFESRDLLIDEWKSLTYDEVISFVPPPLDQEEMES

Row | SMILES | % Inhibition of p38α kinase at 15 μM (p38-α kinase [3]) [%] | further results
1 | COc1ccc(C(=O)N2CCC(Cc3ccccc3)CC2)cc1 [compound 2, 1-(4-methoxybenzoyl)-4-benzyl piperidine] | – | IC50 (p38-α kinase [1]): 605 nM
2 | COc1cccc(C(=O)N2CCC(Cc3ccccc3)CC2)c1 [compound 5, 1-(3-methoxybenzoyl)-4-benzyl piperidine] | – | IC50 (p38-α kinase [1]): 1100 nM
3 | O=C(c1ccccc1Cl)N1CCC(Cc2ccccc2)CC1 [compound 7, 1-(2-chlorobenzoyl)-4-benzyl piperidine] | – | MR value (molar refraction) [2]: about 6; inhibition at 15 µM (p38-α kinase [1]): 99%; inhibition at 0.2 µM (p38-α kinase [1]): 52%
4 | O=C(c1ccccc1Br)N1CCC(Cc2ccccc2)CC1 [compound 8, 1-(2-bromobenzoyl)-4-benzyl piperidine] | – | MR value (molar refraction) [2]: approximately 9; inhibition at 15 µM (p38-α kinase [1]): 99%; inhibition at 0.2 µM (p38-α kinase [1]): 72%
5 | COc1ccccc1C(=O)N1CCC(Cc2ccccc2)CC1 [compound 10, 1-(2-methoxybenzoyl)-4-benzyl piperidine] | – | MR value (molar refraction) [2]: about 8
6 | Cc1ccccc1C(=O)N1CCC(Cc2ccccc2)CC1 [compound 11, 1-(2-methylbenzoyl)-4-benzyl piperidine] | – | inhibition at 15 µM (p38-α kinase [1]): 98%
7 | O=C(c1cccc(Br)c1)N1CCC(Cc2ccccc2)CC1 [meta-Br] | 74 | –
8 | O=C(c1cccc(C(F)(F)F)c1)N1CCC(Cc2ccccc2)CC1 [meta-CF3] | 49 | –
9 | O=C(c1cccc(Cl)c1)N1CCC(Cc2ccccc2)CC1 [meta-Cl] | 80 | –
10 | O=C(c1cccc(F)c1)N1CCC(Cc2ccccc2)CC1 [meta-F] | 92 | –
11 | Cc1cccc(C(=O)N2CCC(Cc3ccccc3)CC2)c1 [meta-methyl] | 90 | –
12 | O=C(c1ccccc1C(F)(F)F)N1CCC(Cc2ccccc2)CC1 [ortho-CF3] | 98 | –
13 | O=C(c1ccccc1F)N1CCC(Cc2ccccc2)CC1 [ortho-F] | 98 | –
14 | O=C(c1ccc(Br)cc1)N1CCC(Cc2ccccc2)CC1 [para-Br] | 96 | –
15 | O=C(c1ccc(C(F)(F)F)cc1)N1CCC(Cc2ccccc2)CC1 [para-CF3] | 66 | –
16 | O=C(c1ccc(Cl)cc1)N1CCC(Cc2ccccc2)CC1 [para-Cl] | 85 | –
17 | O=C(c1ccc(F)cc1)N1CCC(Cc2ccccc2)CC1 [para-F] | 94 | –
18 | Cc1ccc(C(=O)N2CCC(Cc3ccccc3)CC2)cc1 [para-methyl] | 97 | –
